Source: article PMC12040169 (PLOS Biology, 2025)

Assay: in vitro
Conditions: human, hela cells, % viability

Row | Compound | viability at 28.5 h, 10 µM
1 | Cc1n[nH]c(C)c1CCC(=O)N/N=C/c1ccc(Cl)cc1Cl [CBK262901] | 86.6%
2 | CN(C)c1ccc(/C=N/NC(=O)CCn2c3ccccc3c3cc(I)ccc32)cc1 [CBK262902] | 84.5%
3 | NC(CC(=O)O)c1cccc([N+](=O)[O-])c1 (centres unmarked) [CBK262903C] | 96.9%
4 | O=C(Cn1c(NCCCO)nc2ccccc21)c1ccc(Cl)c(Cl)c1 [CBK262905B] | 94.1%
5 | CCn1c(=N)n(CC(=O)O)c2ccccc21 [CBK262906B] | 94%
6 | O=C1/C(=C/NCc2cccnc2)C(c2ccccc2)=NN1c1ccc([N+](=O)[O-])cc1 [CBK262911] | 97.6%
7 | CC1(C)OC2C(C(=O)O)OC(n3cnc4c(N)ncnc43)C2O1 (centres unmarked) [CBK262912] | 96.2%
8 | CCN(CC)CCn1c(=N)n(CC(O)c2ccc(C)cc2)c2ccccc21 (centres unmarked) [CBK262914C] | 104%
9 | CCCCOc1ccc(C(N)CC(=O)O)cc1 (centres unmarked) [CBK262915] | 86.8%
10 | O=C(O)COc1ccccc1/C=N\N1CCN(c2ccccn2)CC1 [CBK262916] | 95.9%
11 | CC(=O)C1=C(O)C(=O)N(CC(=O)O)C1c1cccc([N+](=O)[O-])c1 (centres unmarked) [CBK262921] | 97.4%
12 | Nc1ncnc2c1ncn2C1OC(C(=O)O)C(O)C1O (centres unmarked) [CBK262922] | 99.9%
13 | c1ccc2sc(SCc3nc4c5c6c(sc5ncn4n3)CCCC6)nc2c1 [CBK262923] | 92.5%
14 | O=C(O)CCCN1C(=O)C(O)=C(C(=O)c2ccccc2)C1c1ccccc1 (centres unmarked) [CBK262924] | 93.3%
15 | COc1cc(/C=N/NC(=O)CCc2c(C)n[nH]c2C)ccc1O [CBK262925] | 90.1%
16 | Cn1c(=N)n(CC(=O)O)c2ccccc21 [CBK262926B] | 90.4%
17 | Cc1n[nH]c(C)c1CCC(=O)N/N=C/c1ccc(O)cc1 [CBK262927] | 109%
18 | O=C(O)CC1OC(=O)c2cc3c(cc21)C(=O)OC3CC(=O)O (centres unmarked) [CBK262928] | 100%
19 | COc1ccc(C(O)Cn2c(=N)n(CCN3CCCCC3)c3ccccc32)cc1 (centres unmarked) [CBK262930C] | 98.8%
20 | CCOc1ccc(C(N)CC(=O)O)cc1 (centres unmarked) [CBK262933C] | 82.4%
21 | C/C(=N\NC(=O)CCc1c(C)n[nH]c1C)c1ccc(N)cc1 [CBK262935] | 97.7%
22 | Nc1ccc(-c2ncccc2O)cc1 [CBK262937C] | 106%

Row | Compound | viability at 28.5 h, 10 µM
23 | N#Cc1c(NC(=O)COc2ccc(Cl)cc2)oc(-c2ccccc2)c1-c1ccccc1 [CBK262938] | 91.5%
24 | CCNC(=S)N(CCc1ccccc1)C1CC(=O)N(c2ccc(F)cc2)C1=O (centres unmarked) [CBK262941] | 87.6%
25 | Cn1c(=O)c2c(nc(SCC(=O)O)n2C)n(C)c1=O [CBK262942] | 88.3%
26 | O=C(COc1ccc(Cl)cc1Br)NNC(=O)c1ccccc1O [CBK262943] | 97.8%
27 | O=C(Nc1ccc2oc(-c3cccnc3)nc2c1)c1ccc(-c2cccc([N+](=O)[O-])c2)o1 [CBK262945] | 106%
28 | Cc1ccc2nc(C)c(CCC(=O)O)c(O)c2c1 [CBK262946] | 91.8%
29 | Cc1ccc(NC(=O)c2ccc(-c3cccc([N+](=O)[O-])c3)o2)cc1-c1nc2ncccc2o1 [CBK262947] | 89.7%
30 | Cc1cc(C(=O)Nc2cccc(-c3nc4cc(Cl)ccc4o3)c2C)ccc1[N+](=O)[O-] [CBK262949] | 91.8%
31 | CC1(C)CC(NC(=O)c2cccc([N+](=O)[O-])c2)CC(C)(C)N1 [CBK262952C] | 99.8%
32 | CCOc1cc(/C=C2\SC(=N)NC2=O)cc(Cl)c1O [CBK262955] | 84.4%
33 | COc1ccc(/C=C(\C#N)c2nc3ccccc3n2Cc2c(C)ccc3ccccc23)cc1 [CBK262960] | 119%
34 | NC(=O)c1ccc(NC(=O)COc2ccccc2Cl)cc1 [CBK262961] | 109%
35 | CC(=O)Nc1ccc(S(=O)(=O)Oc2ccc(C3C4=C(CC(C)(C)CC4=O)N=C4c5ccccc5C(=O)C43)cc2)cc1 (centres unmarked) [CBK262964] | 93.7%
36 | N#C/C(=C\c1ccc(-c2ccc3c(c2)C(=O)NC3=O)o1)c1nc2ccccc2[nH]1 [CBK262965] | 94.4%
37 | CC1CC(N(C(=O)c2cccc(Br)c2)c2ccccc2)c2ccccc2N1 (centres unmarked) [CBK262966] | 96.7%
38 | c1ccc2c(OCc3nc4ccccc4[nH]3)cccc2c1 [CBK262969] | 106%
39 | COC(=O)Nc1ccc2c(c1)N(C(=O)CCN(C)C)c1ccccc1CC2 [CBK262972C] | 87.2%
40 | O=c1c2c3c(sc2n2c(S)nnc2n1Cc1ccccc1)CN(Cc1ccccc1)CC3 [CBK262973] | 95%
41 | CCn1c(C(O)c2ccc(OC)c(OC)c2)nc2ccccc21 (centres unmarked) [CBK262974] | 90.1%
42 | O=C(Cc1ccccc1)NN1C(=O)/C(=C/c2ccccc2C(=O)O)SC1=S [CBK262975] | 104%
43 | COC(=O)CNC(c1ccccc1)c1cc(Br)ccc1NC(C)=O (centres unmarked) [CBK262976] | 119%
44 | Cc1ccc(Cn2c(=N)n(CC(=O)c3ccc(Br)cc3)c3ccccc32)cc1 [CBK262979B] | 94%

Row | Compound | viability at 28.5 h, 10 µM
45 | COC(=O)CN1C(CN2CCOCC2)=Nc2ccc(Br)cc2C1c1ccccc1 (centres unmarked) [CBK262981] | 89.8%
46 | COc1ccc(OC)c(N/C=C(/C#N)c2nc(-c3cc4c(ccc5ccccc54)oc3=O)cs2)c1 [CBK262991] | 109%
47 | COc1ccc(Cl)cc1NC(=O)COc1cccc2ccccc12 [CBK262995] | 94.9%
48 | CC(C)(C)c1cc(C(c2ccccc2O)N2CCOCC2)cc(C(C)(C)C)c1O (centres unmarked) [CBK262998] | 86.4%
49 | COc1ccc(/C=N/NC(=O)c2ccc(O)cc2O)cc1COc1cc(C)c(Cl)c(C)c1 [CBK263000] | 90.3%
50 | N/C(=N\OC(=O)COc1cccc2ccccc12)c1ccc(Cl)cc1 [CBK263004] | 88.4%
51 | O=C(COc1cccc2ccccc12)NNC(=O)C1CCCO1 (centres unmarked) [CBK263007] | 89.7%
52 | COc1ccccc1CC(=N)NOC(=O)COc1cccc2ccccc12 [CBK263012] | 94.2%
53 | COc1ccc(Cl)cc1N/C=C(/C#N)c1nc(-c2cc3cc([N+](=O)[O-])ccc3oc2=O)cs1 [CBK263014] | 102%
54 | O=C1C2C3C=CC(C2C(=O)N1CCO)C1C2C(=O)N(CCO)C(=O)C2C31 (centres unmarked) [CBK263016] | 101%
55 | CCC(Sc1nc(C)cc(C)n1)C(=O)N1c2ccccc2Sc2ccccc21 (centres unmarked) [CBK263018] | 92.9%
56 | O=C(c1cccnc1)N1CCN(Cc2cccc([N+](=O)[O-])c2)CC1 [CBK263020] | 114%
57 | CC(=O)C12c3ccccc3C(c3ccccc31)C1C(=O)N(c3ccc(Cl)c(C(=O)O)c3)C(=O)C12 (centres unmarked) [CBK263021] | 93.8%
58 | CCC12CN3CCN(CC(C3)/C1=N\O)C2 [CBK263022] | 85.9%
59 | O=C(O)c1cc2nc3c(c(C(F)(F)F)n2n1)CCc1ccccc1-3 [CBK263025] | 102%
60 | O=C(c1cccnc1)N1CCN(Cc2ccc([N+](=O)[O-])cc2)CC1 [CBK263026] | 93.4%
61 | CCC(SC1=NCCS1)C(=O)Nc1ccc(S(N)(=O)=O)cc1 (centres unmarked) [CBK263027] | 95.3%
62 | CN(C)CC1(O)C2CN3CCN(C2)CC1(c1ccccc1)C3 (centres unmarked) [CBK263029] | 97.5%
63 | O=C(O)c1ccc(N2C(=O)C3C4C=CC(C4=C(c4ccccc4)c4ccccc4)C3C2=O)cc1 (centres unmarked) [CBK263030] | 104%
64 | COc1ccc(C(=O)N2CCN(Cc3cc(OC)ccc3OC)CC2)cc1 [CBK263032] | 88.8%
65 | CC12CN3CCN(CC(C3)C1(O)CN1CCOCC1)C2 (centres unmarked) [CBK263033] | 103%
66 | CCOC(=O)c1c(NC(=O)Cn2cnc([N+](=O)[O-])n2)sc2c1CCC2 [CBK263042] | 92.5%

Row | Compound | viability at 28.5 h, 10 µM
67 | Cc1ccc(-c2nc3ncccc3o2)cc1NC(=O)c1ccc(F)cc1 [CBK263043] | 103%
68 | O=C(NCCCN1CCOCC1)c1cnn2c(-c3ccccc3)cc(-c3ccccc3)nc12 [CBK263046] | 79.9%
69 | CN(C)CCNCCP(=O)(c1ccccc1)c1ccccc1 [CBK263049] | 104%
70 | Cc1c(NC(=O)c2ccc([N+](=O)[O-])o2)cccc1-c1nc2ccccc2s1 [CBK263051] | 85.6%
71 | Cc1ccc(C(=O)Nc2c(C(=O)N3CCN(Cc4ccccc4)CC3)cnn2-c2ccccc2)cc1 [CBK263053] | 91.1%
72 | CCOC(=O)c1c(NC(=O)Cn2nc([N+](=O)[O-])c(Cl)c2C)sc2c1CCC(C)C2 (centres unmarked) [CBK263054] | 94.2%
73 | Cc1ccc2oc(-c3ccc(C)c(NC(=O)c4cc([N+](=O)[O-])ccc4Cl)c3)nc2c1 [CBK263055] | 94.5%
74 | Cc1ccc(C(=O)Nc2c(C(=O)Nc3cccnc3)cnn2-c2ccccc2)cc1 [CBK263056] | 92.4%
75 | O=C(Cn1nnc(-c2ccccc2)n1)Nc1cccc([N+](=O)[O-])c1 [CBK263057] | 97.9%
76 | CCOC(=O)c1c(NC(=O)Cn2cnc([N+](=O)[O-])n2)sc2c1CCC(C)C2 (centres unmarked) [CBK263058] | 120%
77 | CC(Sc1nc2ccccc2[nH]1)C(=O)O (centres unmarked) [CBK263063] | 101%
78 | S=C(NCCN1CCCCC1)NCc1ccccc1 [CBK263066] | 112%
79 | Nc1nc(N)nc(Cn2c(-c3nonc3N)nc3ccccc32)n1 [CBK263072] | 105%
80 | Cc1c(Nc2nc3nonc3nc2Nc2cccc(Cl)c2)c(=O)n(-c2ccccc2)n1C [CBK263073] | 103%
81 | C=CCNc1nc(NCCN2CCOCC2)nc(N2CCOCC2)n1 [CBK263074] | 112%
82 | O=S(=O)(Nc1ccc(N2CCCCC2)cc1)c1cccc2cccnc12 [CBK263077] | 93.1%
83 | O=C(O)C(Cc1ccccc1)N1C(=O)/C(=C/c2cccc([N+](=O)[O-])c2)SC1=S (centres unmarked) [CBK263078] | 98.4%
84 | O=C(O)c1cccnc1SC1CC(=O)N(c2ccc([N+](=O)[O-])cc2)C1=O (centres unmarked) [CBK263079] | 100%
85 | N#C/C(=C\c1ccc(-c2cc(Cl)ccc2Cl)o1)C(=O)Nc1cccc2cccnc12 [CBK263082] | 110%

Same assay, conditions: human, hela cells, % viability, bulk resorufin, single well

Row | Compound | viability at 28.5 h, 10 µM
86 | O=C(O)CCC(=O)OC1N=C(c2ccccc2Cl)c2cc(Br)ccc2NC1=O (centres unmarked) [CBK263076] | 85.2%
